From ChEMBL document CHEMBL1138868, “Interpreting steep dose-response curves in early inhibitor discovery” (J Med Chem, 2006)

Legend:
Beta-lactamase [1] = molecular target: T1, Beta-lactamase (Escherichia coli K-12, UniProt P00811); assay: Inhibition of 1 nM AmpC beta lactamase
Beta-lactamase [2] = molecular target: T1, Beta-lactamase; assay: Inhibition of 30 nM AmpC beta lactamase
Beta-lactamase [3] = molecular target: T1, Beta-lactamase; assay: Inhibition of 10 nM AmpC beta lactamase
Beta-lactamase [4] = molecular target: T1, Beta-lactamase; assay: Inhibition of 20 nM AmpC beta lactamase

T1 sequence (P00811 whole entry): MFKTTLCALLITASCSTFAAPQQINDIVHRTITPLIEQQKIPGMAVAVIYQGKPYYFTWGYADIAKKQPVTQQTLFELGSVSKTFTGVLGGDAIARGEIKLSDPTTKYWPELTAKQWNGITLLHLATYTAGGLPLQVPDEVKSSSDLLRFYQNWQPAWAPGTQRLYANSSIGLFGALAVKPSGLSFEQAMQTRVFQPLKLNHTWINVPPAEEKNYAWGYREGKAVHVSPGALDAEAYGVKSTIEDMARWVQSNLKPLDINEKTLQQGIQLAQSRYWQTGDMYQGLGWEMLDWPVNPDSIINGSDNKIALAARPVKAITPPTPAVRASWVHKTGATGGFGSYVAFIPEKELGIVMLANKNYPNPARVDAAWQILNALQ

## CC(=O)c1c(O)c(C)c(O)c(Cc2c(O)c3c(c(C(=O)/C=C/c4ccccc4)c2O)OC(C)(C)C=C3)c1O [ROTTLERIN]
Beta-lactamase [1]
  IC50: 1800 nM
Beta-lactamase [2]
  IC50: 76 µM
Beta-lactamase [3]
  IC50: 21 µM

## O=C1OC(c2ccc(O)cc2)(c2ccc(O)cc2)c2c(I)c(I)c(I)c(I)c21 [TETRAIODOPHENOLPHTHALEINE]
Beta-lactamase [4]
  IC50: 19 µM
Beta-lactamase [1]
  IC50: 3800 nM
Beta-lactamase [3]
  IC50: 20 µM
